Our source for the inhibition and Activity values is ChEMBL document CHEMBL3297716, “Rhapontigenin suppresses cell migration and invasion by inhibiting the PI3K-dependent Rac1 signaling pathway in MDA-MB-231 human breast cancer cells” (J Nat Prod, 2014).

Data set [1] concerns MDA-MB-231. The data set is described as follows: Inhibition of PI3K in human MDA-MB-231 cells assessed as inhibition of AKT phosphorylation at 1 to 10 uM after 24 hrs by Western blot analysis. Format: cell-based.
The subject of data set [2] is MDA-MB-231. The data set is described as follows: Effect on total AKT protein level in human MDA-MB-231 cells at 1 to 10 uM after 24 hrs by Western blot analysis. It is filed as functional, cell-based. (In general: Immunoblotting shows a protein as a band on a membrane.)
In data set [3] the test system is MDA-MB-231. The data set is described as follows: Cytotoxicity against human MDA-MB-231 cells assessed as cell viability at 100 to 200 uM after 24 hrs by MTT assay. Format: cell-based. As to conditions: mda-mb-231, 24 h. (In general: Tetrazolium assays rely on reduction of a dye to a coloured formazan, in cell work by metabolically active cells.)
Data set [4] concerns MDA-MB-231. The data set is described as follows: Cytotoxicity against human MDA-MB-231 cells assessed as cell viability up to 50 uM after 24 hrs by MTT assay. Format: cell-based. As to conditions: mda-mb-231, 24 h.
The species named for data set [5] is Homo sapiens. Kind of data set: Inhibition of PI3K-dependent Rac1 activation in human MDA-MB-231 cells assessed as suppression of serum-induced cell migration at 10 uM after 24 hrs by wound-healing assay relative to control. Format: cell-based.
For data set [6], the species on record is Homo sapiens. The data set is described as follows: Inhibition of PI3K-dependent Rac1 activation in human MDA-MB-231 cells assessed as suppression of serum-induced cell migration at 25 uM after 24 hrs by wound-healing assay relative to control. It is filed as cell-based.
The species named for data set [7] is Homo sapiens. Kind of data set: Inhibition of PI3K-dependent Rac1 activation in human MDA-MB-231 cells assessed as suppression of serum-induced cell migration at 50 uM after 24 hrs by wound-healing assay relative to control. It is filed as cell-based.
In data set [8] the test system is MDA-MB-231. The data set is described as follows: Inhibition of PI3K-dependent Rac1 activation in human MDA-MB-231 cells assessed as suppression of serum-induced cell invasion into matrigel at 10 uM preincubated for 30 mins with cells followed by loading into upper well of matrigel coated filter measured after 15 hrs by Boyden chamber analysis relative to control. It is filed as cell-based.

The subject of data set [9] is MDA-MB-231. The data set is described as follows: Inhibition of PI3K-dependent Rac1 activation in human MDA-MB-231 cells assessed as suppression of serum-induced cell invasion into matrigel at 25 uM preincubated for 30 mins with cells followed by loading into upper well of matrigel coated filter measured after 15 hrs by Boyden chamber analysis relative to control. It is filed as cell-based.

Data set [10] relates to MDA-MB-231. Kind of data set: Inhibition of PI3K-dependent Rac1 activation in human MDA-MB-231 cells assessed as suppression of serum-induced cell invasion into matrigel at 50 uM preincubated for 30 mins with cells followed by loading into upper well of matrigel coated filter measured after 15 hrs by Boyden chamber analysis relative to control. It is filed as cell-based.

Data set [11] deals with MDA-MB-231. Kind of data set: Inhibition of PI3K-dependent Rac1 activation in human MDA-MB-231 cells at 10 uM after 30 mins by ELISA relative to untreated control. It is filed as cell-based. In general terms: In an ELISA, binding on a coated surface is turned into a signal by an enzyme label.
The test system of data set [12] is MDA-MB-231. Kind of data set: Inhibition of PI3K-dependent Rac1 activation in human MDA-MB-231 cells at 25 uM after 30 mins by ELISA relative to untreated control. It is filed as cell-based.
Data set [13] relates to MDA-MB-231. Kind of data set: Inhibition of PI3K-dependent Rac1 activation in human MDA-MB-231 cells at 50 uM after 30 mins by ELISA relative to untreated control. Format: cell-based.
The subject of data set [14] is MDA-MB-231. The data set is described as follows: Effect on total Rac1 protein expression in human MDA-MB-231 cells after 30 mins by Western blot analysis. It is filed as functional, cell-based.
Data set [15] has as its system MDA-MB-231. Kind of data set: Inhibition of PI3K in human MDA-MB-231 cells assessed as downregulation of activated Rac1-GTP protein expression at 50 uM after 30 mins by Western blot analysis. It is filed as cell-based.
Data set [16] deals with MDA-MB-231. Kind of data set: Inhibition of PI3K-dependent Rac1 activation in human MDA-MB-231 cells assessed as downregulation of WAVE-2 protein expression at 10 to 50 uM after 24 hrs by Western blot analysis. Format: cell-based.
The subject of data set [17] is MDA-MB-231. Kind of data set: Inhibition of PI3K-dependent Rac1 activation in human MDA-MB-231 cells assessed as downregulation of Arp-2 protein expression at 10 to 50 uM after 24 hrs by Western blot analysis. It is filed as cell-based.
The subject of data set [18] is MDA-MB-231. The data set is described as follows: Inhibition of PI3K-dependent Rac1 activation in human MDA-MB-231 cells assessed as downregulation of Arp-3 protein expression at 10 to 50 uM after 24 hrs by Western blot analysis. It is filed as cell-based.
For data set [19], the system named is MDA-MB-231. Kind of data set: Inhibition of PI3K-dependent Rac1 activation in human MDA-MB-231 cells assessed as inhibition of PAK1 phosphorylation at 10 to 50 uM after 24 hrs by Western blot analysis. Format: cell-based.
In data set [20] the test system is MDA-MB-231. The data set is described as follows: Inhibition of PI3K-dependent Rac1 activation in human MDA-MB-231 cells assessed as inhibition of LIMK1/2 phosphorylation at 10 to 50 uM after 24 hrs by Western blot analysis. It is filed as cell-based.
For data set [21], the system named is MDA-MB-231. Kind of data set: Inhibition of PI3K-dependent Rac1 activation in human MDA-MB-231 cells assessed as inhibition of cofilin phosphorylation at 10 to 50 uM after 24 hrs by Western blot analysis. Format: cell-based.
For data set [22], the system named is MDA-MB-231. The data set is described as follows: Effect on total PAK1 protein level in human MDA-MB-231 cells at 10 to 50 uM after 24 hrs by Western blot analysis. It is filed as functional, cell-based.
Data set [23] relates to MDA-MB-231. The data set is described as follows: Effect on total LIMK1/2 protein level in human MDA-MB-231 cells at 10 to 50 uM after 24 hrs by Western blot analysis. Format: functional, cell-based.
Data set [24] has as its system MDA-MB-231. The data set is described as follows: Effect on total cofilin protein level in human MDA-MB-231 cells at 10 to 50 uM after 24 hrs by Western blot analysis. It is filed as functional, cell-based.
The subject of data set [25] is MDA-MB-231. The data set is described as follows: Inhibition of PI3K-dependent Rac1 activation in human MDA-MB-231 cells assessed as inhibition of lamellipodia formation at 50 uM after 24 hrs by rhodamine phalloidin/DAPI staining-based confocal microscopic analysis. Format: cell-based.
The subject of data set [26] is MDA-MB-231. Kind of data set: Inhibition of PI3K phosphorylation in human MDA-MB-231 cells at 10 to 50 uM after 24 hrs by Western blot analysis. It is filed as cell-based.
Data set [27] deals with MDA-MB-231. The data set is described as follows: Inhibition of PI3K in human MDA-MB-231 cells assessed as inhibition of AKT phosphorylation at 10 to 50 uM after 24 hrs by Western blot analysis. Format: cell-based.
Data set [28] deals with MDA-MB-231. The data set is described as follows: Effect on total PI3K protein level in human MDA-MB-231 cells at 10 to 50 uM after 24 hrs by Western blot analysis. Format: functional, cell-based.
The subject of data set [29] is MDA-MB-231. Kind of data set: Effect on total AKT protein level in human MDA-MB-231 cells at 10 to 50 uM after 24 hrs by Western blot analysis. Format: functional, cell-based.

The structures appear in SMILES notation. Activity calls are given as the source filed them. No cut-off for these calls is given here.

As to `COC[C@H]1OC(=O)c2coc3c2[C@@]1(C)C1=C(C3=O)[C@@H]2CCC(=O)[C@@]2(C)C[C@H]1OC(C)=O`, the inhibition entry in the data set with MDA-MB-231 [1] is “Active”. In addition, in the data set on MDA-MB-231 [2], the outcome was inactive.

On to `COc1ccc(/C=C/c2cc(O)cc(O)c2)cc1O`, for which the figures for the Activity entry in the data set on MDA-MB-231 [3] and in the data set with MDA-MB-231 [4] were “Toxic” and “Non-toxic”, respectively. In addition, the inhibition in the data set filed under Homo sapiens [5] worked out at 25%; in the data set filed under Homo sapiens [6], 44%; in the data set listed under Homo sapiens [7], 70%; in the data set with MDA-MB-231 [8], 26%; in the data set with MDA-MB-231 [9], 50%; in the data set on MDA-MB-231 [10], 68%. Further, the inhibition in the data set with MDA-MB-231 [11] is 17%; in the data set with MDA-MB-231 [12] it was 25%; in the data set on MDA-MB-231 [13], 44%. The outcome with MDA-MB-231 [14], with MDA-MB-231 [22], in the data set on MDA-MB-231 [23], in the data set with MDA-MB-231 [24], in the data set on MDA-MB-231 [28] and with MDA-MB-231 [29] was inactive. Besides, the inhibition entry in the data set with MDA-MB-231 [15], in the data set on MDA-MB-231 [16], with MDA-MB-231 [17], in the data set on MDA-MB-231 [18], in the data set with MDA-MB-231 [19] and with MDA-MB-231 [20] was “Active” in each case. In addition, the inhibition result in the data set with MDA-MB-231 [21], with MDA-MB-231 [25], with MDA-MB-231 [26] and in the data set on MDA-MB-231 [27] was “Active” in each case.

In general, inhibition refers to the percentage by which the read-out fell short of the control.
